Experimental data taken from patent US7279548B2, “Identification and isolation of novel polypeptides having WW domains and methods of using same” (Cytogen Corporation, priority 1996, dated 2007).
Entries after “also recorded” stand apart in the source; their conditions may differ. No end group written: not given here. *: point of attachment. Biotin = O=C1N[C@H]2[C@H](CS[C@H]2CCCCC(=O)*)N1

Target: T1, WWP3 WW domain expressed as GST fusion protein (Homo sapiens, UniProt Q96QZ7)
T1 construct: made in house
Assay: ELISA based cross affinity mapping, WWP3 WW domain
Format: binding
Settings: biotinylated peptide-streptavidin/alkaline phosphatase complex
Description: The 16 day mouse embryo cDNA expression library was diluted 1:1000 in SM solution (100 mM NaCl, 8 mM MgSOv4, 50 mM Tris HCl pH 7.5, 0.01% gelatin). To a sterile test tube, 2 μl of diluted mouse embryo library, 100 μl of 10 mM CaCl2, 100 μl of 10 mM MgCl2 and 100 μl of BL21(DE3)pLysE bacterial cells (grown overnight) were added and incubated for 30 minutes at 37° C. The contents of the tube were mixed with 3 ml of 0.6% top agarose, containing […] chloramphenicol, and poured onto a 2xYT plate (90 mm diameter). For a large primary screen, 10–20 plates were prepared with 3×10^4 pfu per plate. After 6 hours incubation at 37° C., a nitrocellulose filter soaked in 10 mM isopropyl-β-D-thiogalactopyranoside (IPTG) was overlaid on each plate and incubated 3–6 hours at 37° C. Before the filters were removed from the plates, they were marked asymmetrically with India ink in a 18 gauge syringe needle. The plates were stored at 4° C. until ready for the secondary screen. The filters were washed with PBS (137 mM NaCl, 2.7 mM KCl, 4.3 mM Na2HPO4, 1.4 mM KH2PO4)-0.05% Triton X-100 three times at room temperature, 15 minutes each wash, and then placed in a plastic bag containing non-specific blocking solution (PBS-2% BSA) for one hour. In the meantime, 1 ml of 1 mM biotinylated peptide in PBS-0.1% Tween 20 was added to 20 ml of 1 mg/ml streptavidin-alkaline phosphatase (SA-AP) in PBS-0.1% Tween 20 and incubated at 4° C. for 30 minutes. As an alternative method of forming multivalent complexes, 50 pmol biotinylated peptide could have been incubated with 2 μg SA-AP (for a biotin:biotin-binding site ratio of 1:1). Excess biotin-binding sites would then be blocked by addition of 500 pmol biotin. As a further alternative, 31.2 μl of 1 mg/ml SA-AP could have been incubated with 15 μl of 0.1 mM biotinylated peptide for 30 min at 4° C. Ten μl of 0.1 mM biotin would then be added, and the solution incubated for an additional 15 min.
To determine the ligand preferences of the novel WW omain-containing clones described in Sections 6.1 and 6.1.1, as well as addressing the issue of whether peptides containing PPPPY (SEQ ID NO:3)-like motifs derived from a variety of proteins could also serve as recognition units and bind to these clones, a cross affinity mapping experiment was performed (FIGS. 15A–D). The peptides shown in FIGS. 15A–D were synthesized, biotinylated, complexed with streptavidin-alkaline phosphatase, and tested in an ELISA based assay for their ability to bind to the twelve individual novel WW domains of WWP1, WWP2, WWP3 and WWP4 which were expressed as GST fusion proteins. The ELISA based cross-affinity experiments were performed essentially as described by Sparks et al. (1996, Proc. Natl. Acad. Sci. 93:1540–1544) with the following modifications. Briefly, microtiter wells were coated with 1–5 μg of fusion protein in 100 mM NaHCO3, blocked with SuperBlock TBS (Pierce) and washed four times with PBS, 0.05% Tween 20. Specific peptide-streptavidin/alkaline phosphatase complexes were added as above and unbound complexes washed five times with PBS, 0.05% Tween 20. Following addition of PNP substrate (p-nitrophenyl phosphate, Kirkegard & Perry Labs), peptide binding was quantitated after 30 min. at O.D. 405 nm. Relative binding measurements from three independent determinations were assigned to a scale as follows: O.D. units 0–0.5=(−), 0.5–1.0=(+), 1.0–2.0=(++), 2.0–3.0=(+++), >3.0=(++++). Peptide binding to human Fyn and Lyn SH3 and SH2 domains was assessed by a filter binding assay (see Section 6.1 and Sparks et al., 1996, Proc. Natl. Acad. Sci 93:1540–1544). […]

T1 sequence (Q96QZ7 300-337 limits assumed): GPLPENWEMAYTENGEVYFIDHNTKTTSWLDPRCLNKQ

Q: With Biotin-SGSGYVQPPPPPYPGPM [WBP-2A] as the substance, how does the “binding to WWP3 WW domain” value read?
A: specifically binds; also recorded: bound

Q: With Biotin-SGSGPGTPPPPYTVGPGY [WBP-1] as the substance, how does the “binding to WWP3 WW domain” value read?
A: not

Q: How did the “binding to WWP3 WW domain” value turn out when Biotin-SGSGPGTPYPPPPEFY [WBP-2B] was run?
A: not
